Some results are limits rather than exact numbers.

A word on the MIC: it is the least concentration at which growth counts as inhibited.

The subject of data set [1] is EMRSA strains. The experiment in a line: MIC of vancomycin or flucloxacillin with and without Aurograb (Table 3a). The format is cell-based, S. aureus. The settings on record: Staphylococcus aureus; all EMRSA strains; read-out: MIC of flucloxacillin. As for the experimental part:
Strains of MRSA were grown overnight in nutrient broth and diluted to give an inoculum of 1×10^3 cells per mL. […] Cultures were incubated for a further 2 days. The minimum growth-inhibitory concentration (MIC) is defined as the […] concentration of antibiotic at which no bacterial growth occurs and is determined by spectrophotometric evaluation of the lack of turbidity (growth) in culture. MICs were determined in the presence of exogenous Aurograb or in the presence of Aurograb formulation buffer (negative control).
The experiments were also performed using flucloxacillin instead of vancomycin to investigate how the efficacy of penicillin-type […] was affected by Aurograb.

Data set [2] relates to human blood. The experiment in a line: Blood compatibility study (haemolysis). As for the experimental part:
This study was carried out by Biochemical Pharmacology department at Inveresk Research, Scotland, in order to assess the suitability of Aurograb for intravenous administration.
Blood samples were taken from healthy human volunteers, transferred to tubes containing Aurograb, Aurograb vehicle, saponin or saline and incubated at 37° C. for 1 hour. After centrifugation, the amount of haemoglobin in the supernatant was then assessed to determine haemolysis.

As to `Cc1onc(-c2c(F)cccc2Cl)c1C(=O)N[C@@H]1C(=O)N2[C@@H]1SC(C)(C)[C@@H]2C(=O)O` [flucloxacillin], the MIC in data set [1] was > 256 µg/mL.

As for saponin, the “Haemolysis classification (ASTM F756-93)” value in data set [2] was “severely haemolytic”.

Values taken from US20070202116A1, “Treatment of micro-organism infection” (priority 2001, published 2007).
